Data: patent US20100184685A1 (priority 2009, published 2010)
Several values for one entry are separate records, joined by “and”; a condition that tells them apart may be missing. Identical values can stand only once.

Tests used:
post-operative pain [1] = test system: post-operative pain; design: species or system human; conditions: in vivo
post-operative pain [2] = conditions: in vivo

CCCCN1CCCCC1C(=O)Nc1c(C)cccc1C (stereo not shown) [Marcaine]
pain level on the visual analog pain scale (post-operative pain [1]): 5-6 /10 and 4 /10 | pain on the visual analog pain scale (post-operative pain [2]): 3-4 /10 | requirement for patient controlled analgesic (PCA) administration during hospitalization (post-operative pain [2]): did not require any patient controlled analgesic (PCA) administration | signs of infection at the previous infusion catheter sites (post-operative pain [2]): without signs of infection
